According to US20060270684A1, “Crystalline forms of ziprasidone mesylate” (priority 2005, published 2006):
Counter-ions that a name gives are not always drawn.

Legend:
[1] = Water absorption of Form I at room temperature for 7 days under various relative humidity conditions; format: physicochemical
Description: Copper radiation of 1.5418 Å was used. A round aluminum sample holder with zero background was used. All peak positions are within ±0.2 degrees two theta. Karl Fisher analysis was performed according to the known art.

[2] = Transformations by heat (XRD and Karl Fisher after heating); format: physicochemical
Description: (§1) X-Ray powder diffraction data were obtained using a SCINTAG powder X-Ray diffractometer model X'TRA equipped with a solid state detector. Copper radiation of 1.5418 Å was used. A round aluminum sample holder with zero background was used. All peak positions are within ±0.2 degrees two theta.
(§2) Karl Fisher analysis was performed according to the known art.

[3] = Water absorption of Form IX after exposure for 10 days to 100% relative humidity at room temperature; format: physicochemical
Description: The present invention provides non-hygroscopic crystalline form of ziprasidone mesylate Form IX. Form IX was tested for water absorption after exposure for 10 days to 100% relative humidity at room temperature, as summarized in the following table:
as §2
Ziprasidone mesylate Form IX was exposed to 100% humidity at room temperature for 10 days. Before the exposure the water content was measured to be about 4.8%, while after the exposure the water content was measure to be about 5.0% water. The difference between water content before and after the exposure to 100% humidity is 0.2%.

[4] = Water absorption of Form XVIII, 7 days at 30° C. under humidity; format: physicochemical
Description: as §1, §2

[5] = aqueous medium at ambient temperature; cited from earlier work
[6] = 60% RH, room temperature, 7 days
[7] = 80% RH, room temperature, 7 days
[8] = 100% RH, room temperature, 7 days
[9] = 100% humidity at room temperature for 10 days
[10] = heated at TEMP. 90, 30 min, mesylate dihydrate
[11] = heated at TEMP. 120, 30 min, mesylate dihydrate

Compound: O=C1Cc2cc(CCN3CCN(c4nsc5ccccc45)CC3)c(Cl)cc2N1 [Form I, ziprasidone mesylate]
- crystal form (by XRD) [1, 6]: Form I
- water content (by Karl Fisher) [1, 6]: 2.5%
- crystal form (by XRD) [1, 7]: Form I
- water content (by Karl Fisher) [1, 7]: 3.1%
- crystal form (by XRD) [1, 8]: Form I
- water content (by Karl Fisher) [1, 8]: 4.6%
- crystal form (by XRD) ([1]; Initial): Form I
- water content (by Karl Fisher) ([1]; Initial): 2.3%
- stability when tested for water absorption ([1]; room temperature, 7 days, various relative humidity conditions): stable

Compound: O=C1Cc2cc(CCN3CCN(c4nsc5ccccc45)CC3)c(Cl)cc2N1 [Form II, ziprasidone mesylate]
- RESULT (XRD) ([2]; heated at TEMP. 90, 30 min): Form II

Compound: O=C1Cc2cc(CCN3CCN(c4nsc5ccccc45)CC3)c(Cl)cc2N1 [Form IX, ziprasidone mesylate]
- water content (by Karl Fisher) ([3]; 100% RH at RT, 10 days): 5%
- difference between water content before and after the exposure [3, 9]: 0.2%
- water content after the exposure [3, 9]: about 5.0%
- water content (by Karl Fisher) ([3]; Initial): 4.7%
- water content before the exposure ([3]; before exposure to 100% humidity): about 4.8%
- hygroscopicity ([3]; non-hygroscopic = does not absorb more than 0.2% of water at 80% humidity, 25° C., 24 hours): non-hygroscopic

Compound: O=C1Cc2cc(CCN3CCN(c4nsc5ccccc45)CC3)c(Cl)cc2N1 [Form XVIII, ziprasidone mesylate]
- Water content (by KF) ([4]; 80% RH, 7 days at 30° C.): 8.2%
- crystal form (by XRD) ([4]; 80% RH, 7 days at 30° C.): Trihydrate
- crystal form (by XRD) ([4]; 80% RH, 7 days at 30° C., listed as form XVIII): transformation to trihydrate
- water content determined by Karl Fisher ([4]; 80% humidity for 7 days at 30° C.): about 8.2%
- Water content (by KF) ([4]; 100% RH, 7 days at 30° C.): 9.1%
- crystal form (by XRD) ([4]; 100% RH, 7 days at 30° C.): Trihydrate
- Water content (by KF) ([4]; Initial): 2%
- crystal form (by XRD) ([4]; Initial): XVIII

Compound: ziprasidone mesylate dihydrate [Dihydrate Lath]
- K.F. [2, 10]: 3.1%
- RESULT (XRD) [2, 10]: Dihydrate Lath
- K.F. [2, 11]: 0.4%
- RESULT (XRD) [2, 11]: Dihydrate Lath
- K.F. ([2]; heated at TEMP. 140, 30 min): 0.3%
- RESULT (XRD) ([2]; heated at TEMP. 140, 30 min): Dihydrate Lath
- K.F. ([2]; heated at TEMP. 160, 30 min): 0.2%
- RESULT (XRD) ([2]; heated at TEMP. 160, 30 min, listed as Dihydrate lath, mesylate dihydrate): Transformation from dihydrate lath to Form VI
- RESULT (XRD) ([2]; heated at TEMP. 160, 30 min, mesylate dihydrate): Form VI
- K.F. ([2]; t = 0 (before heating)): (t = 0 6.5%)

Compound: ziprasidone mesylate dihydrate [Dihydrate needle]
- K.F. [2, 10]: 3%
- RESULT (XRD) [2, 10]: Dihydrate needle
- K.F. [2, 11]: 0.5%
- RESULT (XRD) [2, 11]: Dihydrate needle

Compound: ziprasidone mesylate trihydrate
- thermodynamic stability among the four crystalline forms of ziprasidone mesylate [5]: most thermodynamically stable form
